MIC data for 19 compounds are collected here from patent US20120214760A1, “TREATMENT OF URINARY TRACT INFECTIONS WITH ANTIBACTERIAL AMINOGLYCOSIDE COMPOUNDS” (Achaogen, Inc., priority 2009, published 2012).

Assay [1] has as its system E. coli ATCC 25922 (AECO001). Briefly: MIC, CLSI broth microdilution. In kind it is cell-based. The note with it: Escherichia coli. As to the method: (§1) Minimum inhibitory concentrations (MIC) were determined by reference Clinical and Laboratory Standards Institute (CLSI) broth microdilution methods per M7-A7 [2006]. Quality control ranges utilizing E. coli ATCC 25922, P. aeruginosa ATCC 27853 and S. aureus ATCC 29213, and interpretive criteria for comparator agents were as published in CLSI M100-S17 [2007]. Briefly, serial two-fold dilutions of the test compounds were prepared at 2× concentration in Mueller Hinton Broth. The compound dilutions were mixed in 96-well assay plates in a 1:1 ratio with bacterial inoculum. The inoculum was prepared by suspension of a colony from an agar plate that was prepared the previous day. Bacteria were suspended in sterile saline and added to each assay plate to obtain a final concentration of 5×10^5 CFU/mL. The plates were incubated at 35° C. for 20 hours in ambient air.
For orientation: In broth dilution the organism is exposed to a series of concentrations in liquid medium.

The subject of assay [2] is P. aeruginosa ATCC 27853 (APAE001). The assay is described as follows: MIC, CLSI broth microdilution. In kind it is cell-based. The note with it: Pseudomonas aeruginosa. The protocol: as §1
[3] abbreviates: ATCC25922, read-out: MIC AECO001, Table 1, AECO001 is ATCC25922.
Setting [4] is: ATCC27853, read-out: MIC APAE001, Table 1, APAE001 is ATCC27853.
Where [5] appears, read: ATCC25922, Table 2, read-out: MIC E. coli.
Where [6] appears, read: Table 1, AECO001 is ATCC25922, read-out: MIC AECO001.
The mark [7] stands for this setting: ATCC27853, Table 2, read-out: MIC P. aeruginosa.

Values after ≈ are worked out from the molar mass of the structure shown. Where two headings read alike, the source gives them in different places. Bounds are passed on as bounds.

One may read the MIC as the least concentration at which growth counts as inhibited. With `CN[C@@H]1[C@@H](O)[C@@H](O[C@@H]2[C@@H](O)[C@H](O[C@H]3OC(CNCCO)=CC[C@H]3N)[C@@H](N)C[C@H]2NC(=O)[C@H](O)CCN)OC[C@]1(C)O` [Example 2, 6′-(2-Hydroxy-ethyl)-1-(4-amino-2(R)-hydroxy-butyryl)-sisomicin], the MIC in assay [1] (setting [3]) and in assay [2] (setting [4]) was 1 to 16 µg/mL (≈ 1.69 to 27 µM) throughout.
Turning to `CN[C@@H]1[C@@H](O)[C@@H](O[C@@H]2[C@@H](O)[C@H](O[C@H]3OC(CNCC(O)CO)=CC[C@H]3N)[C@@H](N)C[C@H]2NC(=O)[C@H](O)CCN)OC[C@]1(C)O` (stereo partly drawn) [Example 3, 6′-(2-Hydroxy-propanol)-1-(4-amino-2(R)-hydroxy-butyryl)-sisomicin], the minimum inhibitory concentration (MIC) in assay [1] (setting [3]) was 1 to 16 µg/mL (≈ 1.61 to 25.7 µM); in assay [2] (setting [4]), greater than 16 µg/mL.
In the same order, the values of `CN[C@@H]1[C@@H](O)[C@@H](O[C@@H]2[C@@H](O)[C@H](O[C@H]3OC(CNCC4CCNCC4)=CC[C@H]3N)[C@@H](N)C[C@H]2NC(=O)[C@H](O)CCN)OC[C@]1(C)O` [Example 4, 6′-(Methyl-piperidin-4-yl)-1-(4-amino-2(R)-hydroxy-butyryl)-sisomicin] are 1 to 16 µg/mL (≈ 1.55 to 24.8 µM) and 1 to 16 µg/mL (≈ 1.55 to 24.8 µM).
Taken in the same sequence, the figures for `CN[C@@H]1[C@@H](O)[C@@H](O[C@@H]2[C@@H](O)[C@H](O[C@H]3OC(CNCC4CC4)=CC[C@H]3N)[C@@H](N)C[C@H]2NC(=O)[C@H](O)CCN)OC[C@]1(C)O` [Example 5, 6′-(Methyl-cyclopropyl)-1-(4-amino-2(R)-hydroxy-butyryl)-sisomicin] were less than 1 µg/mL and 1 to 16 µg/mL (≈ 1.66 to 26.5 µM).
Regarding `CN[C@@H]1[C@@H](O)[C@@H](O[C@@H]2[C@@H](O)[C@H](O[C@H]3OC(CNCCCN)=CC[C@H]3N)[C@@H](N)C[C@H]2NC(=O)[C@H](O)CCN)OC[C@]1(C)O` [Example 6, 6′-(3-Amino-propyl)-1-(4-amino-2(R)-hydroxy-butyryl)-sisomicin], the MIC in assay [1] (setting [3]) and in assay [2] (setting [4]) was 1 to 16 µg/mL (≈ 1.65 to 26.4 µM) throughout.
With `CN[C@@H]1[C@@H](O)[C@@H](O[C@@H]2[C@@H](O)[C@H](O[C@H]3OC(CNCC4CC4)=CC[C@H]3N)[C@@H](N)C[C@H]2NC(=O)[C@H](O)CN)OC[C@]1(C)O` [Example 7, 6′-Methyl-cyclopropyl-1-(3-amino-2(R)-hydroxy-propionyl)-sisomicin], the MIC in assay [1] (setting [3]) is less than 1 µg/mL; in assay [2] (setting [4]) it was 1 to 16 µg/mL (≈ 1.7 to 27.2 µM).
Take `CN[C@@H]1[C@@H](O)[C@@H](O[C@@H]2[C@@H](O)[C@H](O[C@H]3OC(CNCC4CCNCC4)=CC[C@H]3N)[C@@H](N)C[C@H]2NC(=O)[C@H](O)CN)OC[C@]1(C)O` [Example 8, 6′-Methyl-piperidinyl-1-(3-amino-2(R)-hydroxy-propionyl)-sisomicin]: the minimal inhibitory concentration (MIC) was less than 1 µg/mL in assay [1] (setting [3]) and 1 to 16 µg/mL (≈ 1.58 to 25.3 µM) in assay [2] (setting [4]).
In the same order, the values of `CN[C@@H]1[C@@H](O)[C@@H](O[C@@H]2[C@@H](O)[C@H](O[C@H]3OC(CNCCO)=CC[C@H]3N)[C@@H](N)C[C@H]2NC(=O)[C@H](O)CN)OC[C@]1(C)O` [Example 9, 6′-(2-Hydroxy-ethyl)-1-(3-amino-2(R)-hydroxy-propionyl)-sisomicin] are 1 to 16 µg/mL (≈ 1.73 to 27.6 µM) and greater than 16 µg/mL.
Taken in the same sequence, the figures for `CN[C@@H]1[C@@H](O)[C@@H](O[C@@H]2[C@@H](O)[C@H](O[C@H]3OC(CNCC(O)CO)=CC[C@H]3N)[C@@H](N)C[C@H]2NC(=O)[C@H](O)CN)OC[C@]1(C)O` (stereo partly drawn) [Example 10, 6′-(2-Hydroxy-propanol)-1-(3-amino-2(R)-hydroxy-propionyl)-sisomicin] were 1 to 16 µg/mL (≈ 1.64 to 26.3 µM) and 1 to 16 µg/mL (≈ 1.64 to 26.3 µM).
Taken in the same sequence, the figures for `CN[C@@H]1[C@@H](O)[C@@H](O[C@@H]2[C@@H](O)[C@H](O[C@H]3OC(CNCCCN)=CC[C@H]3N)[C@@H](N)C[C@H]2NC(=O)[C@H](O)CN)OC[C@]1(C)O` [Example 11, 6′-(3-Amino-propyl)-1-(3-amino-2(R)-hydroxy-propionyl)-sisomicin] were less than 1 µg/mL and 1 to 16 µg/mL (≈ 1.69 to 27 µM).
In the case of `CN[C@@H]1[C@@H](O)[C@@H](O[C@@H]2[C@@H](O)[C@H](O[C@H]3OC(CNCC(O)CO)=CC[C@H]3N)[C@@H](N)C[C@H]2NC(=O)[C@@H](O)CN)OC[C@]1(C)O` (stereo partly drawn) [Example 14, 6′-(2-Hydroxy-propanol)-1-(3-amino-2(S)-hydroxy-propionyl)-sisomicin], the MIC in assay [1] (setting [3]) and in assay [2] (setting [4]) was 1 to 16 µg/mL (≈ 1.64 to 26.3 µM) in each case.
As for `CN[C@@H]1[C@@H](O)[C@@H](O[C@@H]2[C@@H](O)[C@H](O[C@H]3OC(CNCC4CCNCC4)=CC[C@H]3N)[C@@H](N)C[C@H]2NC(=O)[C@@H](O)CN)OC[C@]1(C)O` [Example 15, 6′-(Methyl-piperidin-4-yl)-1-(3-amino-2(S)-hydroxy-propionyl)-sisomicin], the values for the MIC in assay [1] (setting [5]), in assay [1] (setting [6]) and in assay [2] (setting [7]) were less than 1 µg/mL, less than 1 µg/mL and 1 to 16 µg/mL (≈ 1.58 to 25.3 µM), respectively.
In the case of `CN[C@@H]1[C@@H](O)[C@@H](O[C@@H]2[C@@H](O)[C@H](O[C@H]3OC(CNCC(O)CO)=CC[C@H]3N)[C@@H](N)C[C@H]2NC(=O)[C@@H](O)CCN)OC[C@]1(C)O` (stereo partly drawn) [Example 19, 6′-(2-Hydroxy-propanol)-1-(4-amino-2(S)-hydroxy-butyryl)-sisomicin], the MIC in assay [1] (setting [3]) is less than 1 µg/mL; in assay [2] (setting [4]), 1 to 16 µg/mL (≈ 1.61 to 25.7 µM).
Taken in the same sequence, the figures for `CN[C@@H]1[C@@H](O)[C@@H](O[C@@H]2[C@@H](O)[C@H](O[C@H]3OC(CNC(=O)C(O)CN)=CC[C@H]3N)[C@@H](N)C[C@H]2NC(=O)[C@@H](O)CN)OC[C@]1(C)O` (stereo partly drawn) [Example 20, 6′-(3-Amino-2-hydroxy-propionyl)-1-(3-amino-2(S)-hydroxy-propionyl)-sisomicin] were greater than 16 µg/mL and greater than 16 µg/mL.
In the same order, the values of `CN[C@@H]1[C@@H](O)[C@@H](O[C@@H]2[C@@H](O)[C@H](O[C@H]3OC(CNCC(O)C(N)=O)=CC[C@H]3N)[C@@H](N)C[C@H]2NC(=O)[C@@H](O)CN)OC[C@]1(C)O` (stereo partly drawn) [Example 21, 6′-(2-Hydroxy-3-propionamide)-1-(3-amino-2(S)-hydroxy-propionyl)-sisomicin] are 1 to 16 µg/mL (≈ 1.61 to 25.7 µM) and 1 to 16 µg/mL (≈ 1.61 to 25.7 µM).
Regarding `CN[C@@H]1[C@@H](O)[C@@H](O[C@@H]2[C@@H](O)[C@H](O[C@H]3OC(CNCC(O)CN)=CC[C@H]3N)[C@@H](N)C[C@H]2NC(=O)[C@@H](O)CN)OC[C@]1(C)O` (stereo partly drawn) [Example 22, 6′-(3-Amino-2-hydroxy-propyl)-1-(3-amino-2(S)-hydroxy-propionyl)-sisomicin], the MIC in assay [1] (setting [5]), in assay [1] (setting [6]) and in assay [2] (setting [7]) was 1 to 16 µg/mL (≈ 1.65 to 26.3 µM) each time.
Regarding `CN[C@@H]1[C@@H](O)[C@@H](O[C@@H]2[C@@H](O)[C@H](O[C@H]3OC(CNCC(O)CO)=CC[C@H]3N)[C@@H](N)C[C@H]2NC(=O)CO)OC[C@]1(C)O` (stereo partly shown) [Example 23, 6′-(2-Hydroxy-propanol)-1-(2-hydroxy-acetyl)-sisomicin], the MIC in assay [1] (setting [3]) and in assay [2] (setting [4]) was greater than 16 µg/mL in each case.
For `CN[C@@H]1[C@@H](O)[C@@H](O[C@@H]2[C@@H](O)[C@H](O[C@H]3OC(CNCCCN)=CC[C@H]3N)[C@@H](N)C[C@H]2NC(=O)CO)OC[C@]1(C)O` [Example 24, 6′-(3-Amino-propyl)-1-(2-hydroxy-acetyl)-sisomicin], the MIC in assay [1] (setting [3]) and in assay [2] (setting [4]) was 1 to 16 µg/mL (≈ 1.78 to 28.4 µM) in each case.
For `CN[C@@H]1[C@@H](O)[C@@H](O[C@@H]2[C@@H](O)[C@H](O[C@H]3OC(CNCCO)=CC[C@H]3N)[C@@H](N)C[C@H]2NC(=O)CO)OC[C@]1(C)O` [Example 25, 6′-(2-Hydroxy-ethyl)-1-(2-hydroxy-acetyl)-sisomicin], the MIC in assay [1] (setting [3]) and in assay [2] (setting [4]) was 1 to 16 µg/mL (≈ 1.82 to 29.1 µM) each time.
